According to PubChem BioAssay (NCI):
Where “and” joins values, the source holds several entries; their conditions need not be identical. Identical values can stand only once.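 1) Cells in 96-well plates. 2) Compound, 48 h, 5 concentrations. 3) Linear interpolation between surrounding doses. 4) Unreached endpoint = highest concentration. Abbreviation: GI50, concentration required for 50% inhibition of growth. TGI marks complete inhibition of growth.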

Key:
Assay in all cases: DTP human tumour cell line panel, 48 h
[1] = test system: MDA-N
[2] = test system: DLD-1 colon
[3] = test system: DMS 273 small cell lung
[4] = test system: SNB-78 CNS
[5] = test system: DMS 114 small cell lung
[6] = test system: XF 498 CNS
[7] = test system: HOP-18 NSCLC
[8] = test system: LXFL 529 NSCLC
[9] = test system: RXF-631 renal

| Structure (SMILES) | TGI [1] [µM] | TGI [2] | TGI [3] | TGI [4] [µM] | TGI [5] | TGI [6] | TGI [7] [µM] | TGI [8] | also measured |
| --- | --- | --- | --- | --- | --- | --- | --- | --- | --- |
| CCN(CC)CCNC(=O)c1ccc(C)c(OCc2ccccc2)c1[N+](=O)[O-] | 38.3 | > 100 µM | 46.9 µM | > 100 | > 65.7 µM | 39.7 µM | > 100 | 33.9 µM | – |
| CC(=O)OCCOCNC(=S)N/N=C/c1ccc(Br)s1 | – | > 100 µM | > 100 µM | > 100 | > 100 µM | > 100 µM | > 100 | > 100 µM | – |
| Nc1nc(N)c2cc(CNc3ccc(C(=O)NC(CC(=O)O)C(=O)O)c(Cl)c3)ccc2n1 (centres undefined) | > 500 | – | – | – | 0.0214 µM | – | – | – | GI50 [1]: 0.05 µM |
| Cc1ncc([N+](=O)[O-])n1CCNS(=O)(=O)CCCn1ncnc1[N+](=O)[O-] | > 100 | – | – | – | – | – | – | – | – |
| O=C(OCC(OC(=O)c1ccccc1)C(OC(=O)c1ccccc1)C(OC(=O)c1ccccc1)c1cnn(-c2ccccc2)n1)c1ccccc1 (centres undefined) | > 100 | – | – | – | – | – | – | – | – |
| CCOc1ccccc1NC(=O)C(C#N)C1=C(Cl)C(=O)c2ccccc2C1=O (centres undefined) | – | 3.31 µM and 4.27 µM | 3.35 µM and 3.47 µM | 4.42 | 2.16 µM and 3.85 µM | 3.75 µM and 3.24 µM | 2.85 | 3.25 µM and 3.16 µM | GI50 [2]: 2.14 µM; GI50 [4]: 2.03 µM; GI50 [5]: 1.66 µM; GI50 [6]: 1.83 µM; GI50 [9]: 6.8 µM; TGI [9]: 4.03 µM and 26.2 µM |
| O=C(O)C12CC3(C(=O)O)CC(C(=O)O)(CC(C(=O)O)(C1)C3=O)C2=O | > 100 | – | – | – | – | – | – | – | – |
| C/C(CCn1[nH]c(=O)ccc1=O)=N\OCCCc1ccccc1 | – | > 100 µM | > 100 µM | > 100 | > 100 µM | > 100 µM | > 100 | > 100 µM | – |
| S=C1CC(c2ccccc2)Sc2ccc(Cl)cc2N1 (centres undefined) | > 100 | – | – | – | – | – | – | – | – |
| O=S1(=O)OCCOS(=O)(=O)C1Cl | – | > 100 µM | > 100 µM | > 100 | > 100 µM | – | > 100 | > 100 µM | – |
| N#CC(C(=O)CCC(=O)Nc1cccc(C(F)(F)F)c1)c1ccc(Cl)cc1 (centres undefined) | – | > 100 µM | > 100 µM | > 100 | – | > 100 µM | > 100 | > 100 µM | TGI [9]: > 100 µM |
| c1ccc(CSc2nc3ccccc3nc2-c2cccs2)cc1 | – | > 100 µM | > 100 µM | > 100 | > 100 µM | > 100 µM | > 100 | > 100 µM | – |
| Cc1ccc(S(=O)(=O)NC(=O)NC2=NC(C)(C)N(c3ccc(Cl)c(Cl)c3)C(N)=N2)cc1 | > 100 | – | – | – | – | – | – | – | – |
| CC(C)C1=C2CCC3(C)C(CCC4C5C6OCC5(CCC6(C)C)CCC43C)C2(C)CC1 (centres undefined) | 30.2 | – | – | – | – | – | – | – | – |
| Cc1nn(C(=O)c2ccc(Cl)cc2)c2c1C(c1ccc(O)cc1)SC(N)=N2 (centres undefined) | > 10 | – | – | – | – | – | – | – | – |
| CC(C)(C)OC(=O)N1N=NC2C1C1CC(OCc3ccccc3)(OCc3ccccc3)C2O1 (centres undefined) | – | > 100 µM | > 100 µM | > 100 | 40.6 µM | 30.3 µM | > 100 | 35 µM | TGI [9]: > 100 µM |
| Oc1ccc(Br)cc1C=Nc1ccc(N=Cc2cc(Br)ccc2O)cc1 | – | > 100 µM | – | > 100 | > 100 µM | – | – | – | – |
| O=C(O)CN(c1ccccc1)S(=O)(=O)c1ccc([N+](=O)[O-])cc1 | – | > 100 µM | > 100 µM | – | – | > 100 µM | > 100 | > 100 µM | TGI [9]: > 100 µM |
| COCOc1ccc(C2(O)Oc3cc(OCOC)ccc3C2C)c(O)c1 (centres undefined) | 28.7 | – | – | – | – | – | – | – | – |
| Cc1cc(C(C)(C)C)cc(Cc2cc(C(C)(C)C)cc(Cc3cc(C(C)(C)C)cc(C)c3O)c2O)c1O | – | 18.5 µM | 22.8 µM | 17.9 | 12.1 µM | 4.13 µM | 29 | 20.5 µM | – |
| CC1C(c2ccc3c(c2)OCO3)c2cc3c(cc2OC1N1CCOCC1)OCO3 (centres undefined) | 29.1 | – | – | – | – | – | – | – | – |
| O=c1c2ccccc2nc(-c2ccccc2)n1NC(=S)Nc1ccccc1 | – | > 100 µM | > 100 µM | – | 73.7 µM | – | > 100 | > 100 µM | – |
| OCC(O)CNc1ccnc2cc(Cl)ccc12 (centres undefined) | – | > 100 µM | – | > 100 | > 100 µM | > 100 µM | > 100 | > 100 µM | – |
| CCOC(=O)Cn1c(=O)n(C)c(=O)c2c1ncn2Cc1ccccc1 | – | > 100 µM | > 100 µM | > 100 | > 100 µM | > 100 µM | – | > 100 µM | – |

| Structure (SMILES) | TGI [1] [µM] | TGI [2] | TGI [3] | TGI [4] [µM] | TGI [5] | TGI [6] | TGI [7] [µM] | TGI [8] | also measured |
| --- | --- | --- | --- | --- | --- | --- | --- | --- | --- |
| COC1=C(Br)C(=O)c2nc(C)ccc2C1=O | – | 22.2 µM | 31.8 µM | 41.6 | 31.6 µM | – | 30.9 | 16.7 µM | – |
| CC1=CC(=O)C(C(O)(C(F)(F)F)C(F)(F)F)C(C)(C)C1 (centres undefined) | > 10 | – | – | – | – | – | – | – | – |
| CC1CN1c1c(C(=O)/C=C/c2ccc(Cl)cc2)c(-c2ccccc2)nn(C)c1=O (centres undefined) | – | 3.45 µM | 6.29 µM | 5.17 | > 10 µM | 5.5 µM | > 10 | 5.13 µM | – |
| CC(C(=O)n1c2ccccc2c2ccccc21)N(c1ccccc1)c1ccccc1 (centres undefined) | – | 43 µM | 34.1 µM | 32 | 32.5 µM | – | – | 27.9 µM | – |
| COC(=O)/C(=C\c1ccc(N(CCC#N)CCC#N)cc1)NC(=O)c1cc([N+](=O)[O-])ccc1Cl | – | > 100 µM | > 100 µM | > 100 | > 100 µM | – | > 100 | > 100 µM | – |
| OCCNCCOc1ccc(/C(=C(/Cl)c2ccccc2)c2ccccc2)cc1 | – | 27.4 µM | – | 23.6 | 29.6 µM | 18.2 µM | 33.4 | 19.7 µM | – |
| Cc1ccc(Nc2nnc(-c3ccc4c(c3)OCO4)o2)c(C)c1 | > 100 | – | – | – | – | – | – | – | – |
| COc1cc(C(=O)N2CCc3c([nH]c4c([N+](=O)[O-])c(OC)ccc34)C2C)cc(OC)c1OC (centres undefined) | – | > 100 µM | > 100 µM | > 100 | > 100 µM | – | – | > 100 µM | TGI [9]: > 100 µM |
| CCOC(CN(C)C(=S)Nc1cccc2ccccc12)OCC | > 10 | – | – | – | – | – | – | – | – |
| CC1=C(c2cc(C(=O)Nc3ccc(Cl)cc3)nc(=S)[nH]2)Sc2ccccc2N1 | – | > 100 µM | > 100 µM | > 100 | > 100 µM | > 100 µM | > 100 | > 100 µM | TGI [9]: > 100 µM |
| C=CCN1CC2CON(C(=O)C(OC)(c3ccccc3)C(F)(F)F)C2C1C(C)C (centres undefined) | – | – | – | – | – | – | – | – | GI50 [1]: 31.8 µg/mL |
| CC1C(=O)OC2CC[N+]3([O-])CC=C(COC(=O)C(C)(O)C1(C)O)C23 (centres undefined) | > 100 | – | – | – | – | – | – | – | – |
| O/C(=C\c1nc2ccccc2nc1NC12CC3CC(CC(C3)C1)C2)c1ccc(Br)cc1 | > 10 | – | – | – | – | – | – | – | – |
| C[C@H]1CCC/C=C/[C@@H]2C[C@H](O)C[C@H]2[C@H](O)[C@@H](SCC(O)CO)CC(=O)O1 (some centres undefined) | > 100 | – | – | – | – | – | – | – | GI50 [1]: 25.5 µM |
| C=CCn1c2c(sc1=S)C(S)N=CN2 (centres undefined) | – | > 100 µM | > 100 µM | > 100 | > 100 µM | > 100 µM | 70.1 | > 100 µM | – |
| O=C(O)CSc1n[nH]c(Cc2ccccc2)n1 | – | > 100 µM | – | > 100 | > 100 µM | > 100 µM | > 100 | > 100 µM | TGI [9]: > 100 µM |
| CC1=C(C(=O)NNS(=O)(=O)c2ccc(C)cc2)CC(C(=O)NNS(=O)(=O)c2ccc(C)cc2)=C(C)N1 | – | > 100 µM | – | > 100 | > 100 µM | > 100 µM | > 100 | > 100 µM | TGI [9]: > 100 µM |
| CCOc1ccccc1NC(=O)C(=O)Cc1nc2ccccc2s1 | – | > 100 µM | > 100 µM | > 100 | > 100 µM | > 100 µM | > 100 | > 100 µM | TGI [9]: > 100 µM |
| Cc1cc2c(nn1)-c1ccccc1C2=O | > 10 | – | – | – | – | – | – | – | – |
| O=C1C(=O)N(c2cc(Cl)ccc2Cl)C(=O)C(=O)C1c1nc2ccccc2o1 | – | > 100 µM | > 100 µM | > 100 | > 100 µM | > 100 µM | > 100 | > 100 µM | TGI [9]: > 100 µM |
| CC(O)CC(O)(C(F)(F)F)C(F)(F)F (centres undefined) | > 10 | – | – | – | – | – | – | – | – |
| N.N.NCCCCCCCCCN.O=C([O-])CC(=O)[O-].O=C([O-])CC(=O)[O-].[Pt+4].[Pt+4] | – | > 100 µM | > 100 µM | > 100 | – | – | > 100 | > 100 µM | GI50 [2]: > 100 µM; GI50 [3]: > 100 µM; GI50 [4]: > 100 µM; GI50 [7]: > 100 µM; GI50 [8]: > 100 µM |
| Cc1cccc(N=C2NC(=O)C(CC(=O)Nc3cccc(C)c3C)S2)c1 (centres undefined) | – | > 100 µM | – | > 100 | > 100 µM | > 100 µM | – | > 100 µM | – |
